Experimental data taken from patent US7812008B2, “9-substituted tetracyclines” (Wyeth LLC, priority 2005, dated 2010).
≈ marks a conversion by molar mass, not a printed value. Read-outs that look alike come from different tables or passages of the source.

What was measured:
[1] = tested on: E. coli GC2270 (tet(M)); experiment: MIC broth microdilution, E. coli GC2270 (tet(M)); format: cell-based; settings: MHBII, 18-22 hours at 35° C.
Experimental: (§1) Methods for in Vitro Antibacterial Evaluation
(§2) The minimum inhibitory concentration (MIC)
(§3) Antimicrobial susceptibility testing. The in vitro activities of representative examples of antibiotics of the invention are determined by the broth microdilution method as recommended by the National Committee for Clinical Laboratory Standards (NCCLS) (1). Mueller-Hinton II broth (MHBII)(BBL Cockeysville, Md.) is the medium employed in the testing procedures. Microtiter plates containing serial dilutions of each antimicrobial agent are inoculated with each organism to yield the appropriate density (10^5 CFU/ml) in a 100 μl final volume. The plates are incubated for 18-22 hours at 35° C. in ambient air. […] NCCLS. 2000. Methods for Dilution Antimicrobial Susceptibility Tests for Bacteria That Grow Aerobically; Approved Standards: M7-A5, vol. 20. National Committe for Clinical Laboratory Standards, Wayne, Pa.

[2] = tested on: E. coli GC4559 (parent GC4560); experiment: MIC broth microdilution, E. coli GC4559 (parent GC4560); format: cell-based; settings: MHBII, 18-22 hours at 35° C.
Experimental: as §1, §2, §3

[3] = tested on: E. coli GC4560 (IMP mutant); experiment: MIC broth microdilution, E. coli GC4560 (IMP mutant); format: cell-based; settings: MHBII, 18-22 hours at 35° C.
Experimental: as §1, §2, §3

[4] = tested on: E. coli GC2203 (ATCC Control); experiment: MIC broth microdilution, E. coli GC2203 (ATCC Control); format: cell-based; settings: MHBII, 18-22 hours at 35° C.
Experimental: as §1, §2, §3

[5] = tested on: E. coli GC1073 (tet(B)); experiment: MIC broth microdilution, E. coli GC1073 (tet(B)); format: cell-based; settings: MHBII, 18-22 hours at 35° C.
Experimental: as §1, §2, §3

[6] = tested on: S. aureus GC1131 (Clinical); experiment: MIC broth microdilution, S. aureus GC1131 (Clinical); format: cell-based; settings: MHBII, 18-22 hours at 35° C.
Experimental: as §1, §2, §3

[7] = tested on: S. aureus GC6466 (tet(M)); experiment: MIC broth microdilution, S. aureus GC6466 (tet(M)); format: cell-based; settings: MHBII, 18-22 hours at 35° C.
Experimental: as §1, §2, §3

[8] = tested on: S. aureus GC6467 (tet(M) + (K)); experiment: MIC broth microdilution, S. aureus GC6467 (tet(M) + (K)); format: cell-based; settings: MHBII, 18-22 hours at 35° C.
Experimental: as §1, §2, §3

[9] = tested on: S. aureus GC1079 (tet(K)); experiment: MIC broth microdilution, S. aureus GC1079 (tet(K)); format: cell-based; settings: MHBII, 18-22 hours at 35° C.
Experimental: as §1, §2, §3

[10] = tested on: S. aureus GC4536 (Smith MP -In Vivo); experiment: MIC broth microdilution, S. aureus GC4536 (Smith MP -In Vivo); format: cell-based; settings: MHBII, 18-22 hours at 35° C.
Experimental: as §1, §2, §3

[11] = tested on: S. aureus GC2216 (ATCC Control); experiment: MIC broth microdilution, S. aureus GC2216 (ATCC Control); format: cell-based; settings: MHBII, 18-22 hours at 35° C.
Experimental: as §1, §2, §3

[12] = tested on: E. faecalis GC4555 (ATCC Control); experiment: MIC broth microdilution, E. faecalis GC4555 (ATCC Control); format: cell-based; settings: MHBII, 18-22 hours at 35° C.
Experimental: as §1, §2, §3

[13] = tested on: E. faecalis GC2267 (tet(L) + (M) + (S)); experiment: MIC broth microdilution, E. faecalis GC2267 (tet(L) + (M) + (S)); format: cell-based; settings: MHBII, 18-22 hours at 35° C.
Experimental: as §1, §2, §3

[14] = tested on: E. faecalis GC2242 (Van-resistant); experiment: MIC broth microdilution, E. faecalis GC2242 (Van-resistant); format: cell-based; settings: MHBII, 18-22 hours at 35° C.
Experimental: as §1, §2, §3

[15] = tested on: S. pneumoniae* GC4465 (Clinical); experiment: MIC broth microdilution, S. pneumoniae GC4465 (Clinical); format: cell-based; settings: 18-22 hours at 35° C.
Experimental: as §1, §2, §3

[16] = tested on: S. pneumoniae* GC1894 (Clinical); experiment: MIC broth microdilution, S. pneumoniae GC1894 (Clinical); format: cell-based; settings: 18-22 hours at 35° C.
Experimental: as §1, §2, §3

[17] = tested on: S. pyogenes* GC4563 (Clinical); experiment: MIC broth microdilution, S. pyogenes GC4563 (Clinical); format: cell-based; settings: 18-22 hours at 35° C.
Experimental: as §1, §2, §3

[18] = tested on: M. catarrhalis* GC6907 (Clinical); experiment: MIC broth microdilution, M. catarrhalis GC6907 (Clinical); format: cell-based; settings: 18-22 hours at 35° C.
Experimental: as §1, §2, §3

[19] = tested on: H. influenzae<> GC6896 (ATCC Control); experiment: MIC broth microdilution, H. influenzae GC6896 (ATCC Control); format: cell-based; settings: 18-22 hours at 35° C.
Experimental: as §1, §2, §3

[20] = tested on: C. albicans GC3066 ATCC (Control); experiment: MIC broth microdilution, C. albicans GC3066 ATCC (Control); format: cell-based; settings: 18-22 hours at 35° C.
Experimental: as §1, §2, §3

[21] = tested on: Staphylococcal aureus Smith M P; experiment: In vivo antibacterial evaluation, acute lethal infection in mice; settings: single oral dose 30 minutes after intraperitoneal challenge, female CD-1 mice, 7 day survival ratios, 3 tests pooled; for ED50: Mus musculus, read-out: SOD* ED50
Experimental: In Vivo Antibacterial Evaluation: The therapeutic effects of representative examples of the invention are determined against acute lethal infection with Staphylococcal aureus Smith M P, Female mice, strain CD-1 (Charles River Laboratoties), ca. 20 grams, are challenged by an intraperitoneal injection of sufficient bacteria (suspended in broth or hog mucin) to kill non-treated controls within 24-28 hours. Antibacterial agents, contained in 0.5 ml of 0.2% aqueous agar, are administered subcutaneously or orally 30 minutes after injection. When an oral dosing schedule is used, animal are deprived of food for 5 hours before and 2 hours after injection. Five mice are treated at each dose level. The 7 day survival ratios from 3 separate tests are pooled for calculation of median effective dose (ED50).

[22] = tested on: Staphylococcal aureus Smith M P; experiment: MIC reported in Table 2 beside the in vivo ED50; format: cell-based; settings: Staphylococcus aureus, infecting strain S. aureus Smith MP
Experimental: Antimicrobial susceptibility testing. The in vitro activities of representative examples of antibiotics of the invention are determined by the broth microdilution method as recommended by the National Committee for Clinical Laboratory Standards (NCCLS) (1). Mueller-Hinton II broth (MHBII)(BBL Cockeysville, Md.) is the medium employed in the testing procedures. Microtiter plates containing serial dilutions of each antimicrobial agent are inoculated with each organism to yield the appropriate density (10^5 CFU/ml) in a 100 μl final volume. The plates are incubated for 18-22 hours at 35° C. in ambient air. […] NCCLS. 2000. Methods for Dilution Antimicrobial Susceptibility Tests for Bacteria That Grow Aerobically; Approved Standards: M7-A5, vol. 20. National Committe for Clinical Laboratory Standards, Wayne, Pa. In Vivo Antibacterial Evaluation: The therapeutic effects of representative examples of the invention are determined against acute lethal infection with Staphylococcal aureus Smith M P, Female mice, strain CD-1 (Charles River Laboratoties), ca. 20 grams, are challenged by an intraperitoneal injection of sufficient bacteria (suspended in broth or hog mucin) to kill non-treated controls within 24-28 hours. Antibacterial agents, contained in 0.5 ml of 0.2% aqueous agar, are administered subcutaneously or orally 30 minutes after injection. When an oral dosing schedule is used, animal are deprived of food for 5 hours before and 2 hours after injection. Five mice are treated at each dose level. The 7 day survival ratios from 3 separate tests are pooled for calculation of median effective dose (ED50).

[23] = tested on: Staphylococcal aureus Smith M P; experiment: In vivo antibacterial evaluation, acute lethal infection in mice; settings: single intraveneous dose, female CD-1 mice, 7 day survival ratios, 3 tests pooled; for ED50: Mus musculus, iv, 168 h, read-out: SIV* ED50

Row | Compound | minimum inhibitory concentration (MIC) [1] | minimum inhibitory concentration (MIC) [2] | minimum inhibitory concentration (MIC) [3] | minimum inhibitory concentration (MIC) [4] | minimum inhibitory concentration (MIC) [5] | minimum inhibitory concentration (MIC) [6] | minimum inhibitory concentration (MIC) [7] | minimum inhibitory concentration (MIC) [8] | minimum inhibitory concentration (MIC) [9] | minimum inhibitory concentration (MIC) [10] | minimum inhibitory concentration (MIC) [11] | minimum inhibitory concentration (MIC) [12] | minimum inhibitory concentration (MIC) [13] | minimum inhibitory concentration (MIC) [14] | minimum inhibitory concentration (MIC) [15] | minimum inhibitory concentration (MIC) [16] | minimum inhibitory concentration (MIC) [17] | minimum inhibitory concentration (MIC) [18] | minimum inhibitory concentration (MIC) [19] | minimum inhibitory concentration (MIC) [20] | also measured
1 | CN(C)c1cc(NC(=O)CN(O)C2CCCCC2)c(O)c2c1C[C@H]1C[C@H]3[C@H](N(C)C)C(O)=C(C(N)=O)C(=O)[C@@]3(O)C(O)=C1C2=O [Example 1, (4S,4aS,5aR,12aS)-9-[(N-cyclohexyl-N-hydroxyglycyl)amino]-4,7-bis(dimethylamino)-3,10,12,12a-tetrahydroxy-1,11-dioxo-1,4,4a,5,5a,6,11,12a-octahydrotetracene-2-carboxamide] | 8 | 8 | 0.25 | 2 | 16 | 4 | 8 | >64 | 16 | 4 | 4 | 1 | 16 | 2 | 0.25 | 0.25 | 0.12 | 0.50 | 2 | >64 | ED50 [21]: 7.75 mg/kg; MIC [22]: 1 µg/mL (≈ 1.59 µM); ED50 [23]: 1.56 mg/kg
2 | CC(C)N(O)CC(=O)Nc1cc(N(C)C)c2c(c1O)C(=O)C1=C(O)[C@]3(O)C(=O)C(C(N)=O)=C(O)[C@@H](N(C)C)[C@@H]3C[C@@H]1C2 [Example 2, (4S,4aS,5aR,12aS)-4,7-bis(dimethylamino)-3,10,12,12a-tetrahydroxy-9-[(N-hydroxy-N-isopropylglycyl)amino]-1,11-dioxo-1,4,4a,5,5a,6,11,12a-octahydrotetracene-2-carboxamide] | 4 | 8 | 0.25 | 2 | 16 | 4 | 4 | 16 | 8 | 4 | 2 | 1 | 4 | 2 | 0.25 | 0.25 | 0.25 | 1 | 2 | >64 | ED50 [21]: 18 mg/kg; MIC [22]: 1 µg/mL (≈ 1.7 µM); ED50 [23]: 0.25 to 0.5 mg/kg
3 | CN(C)[C@@H]1C(O)=C(C(N)=O)C(=O)[C@@]2(O)C(O)=C3C(=O)c4c(O)c(NC(=O)CN5CCCCO5)cc(I)c4C[C@H]3C[C@@H]12 [Example 9, (4S,4aS,5aR,12aS)-4-(dimethylamino)-3,10,12,12a-tetrahydroxy-7-iodo-9[(1,2-oxazinan-2-ylacetyl)amino]-1,11-dioxo-1,4,4a,5,5a,6,11,12a-octahydrotetracene-2-carboxamide] | >64 | >64 | 2 | >64 | >64 | 2 | 1 | 4 | 2 | 4 | 1 | 4 | 2 | 8 | 1 | 0.50 | 1 | 2 | >64 | >64 | 
4 | CN(C)[C@@H]1C(O)=C(C(N)=O)C(=O)[C@@]2(O)C(O)=C3C(=O)c4c(O)c(NC(=O)CN5CCCCO5)cc(-c5cccs5)c4C[C@H]3C[C@@H]12 [Example 10, (4S,4aS,5aR,12aS)-4-(dimethylamino)-3,10,12,12a-tetrahydroxy-9-[(1,2-oxazinan-2-ylacetyl)amino]-1,11-dioxo-7-thien-2-yl-1,4,4a,5,5a,6,11,12a-octahydrotetracene-2-carboxamide] | >64 | >64 | 4 | >64 | >64 | 4 | 2 | 8 | 4 | 4 | 4 | 8 | 4 | 4 | 2 | 2 | 2 | 2 | >64 | >64 | 
5 | CN(C)c1cc(NC(=O)CNC(C)(C)C)c(O)c2c1C[C@H]1C[C@H]3[C@H](N(C)C)C(O)=C(C(N)=O)C(=O)[C@@]3(O)C(O)=C1C2=O [GAR-936, reference compound] |  |  |  |  |  |  |  |  |  |  |  |  |  |  |  |  |  |  |  |  | SOD* ED50 [21]: 36 mg/kg; SIV* ED50 [23]: 0.46 mg/kg
6 | CN(C)c1ccc(O)c2c1C[C@H]1C[C@H]3[C@H](N(C)C)C(O)=C(C(N)=O)C(=O)[C@@]3(O)C(O)=C1C2=O [Minocycline, 7-(dimethylamino)-6-demethyl-6-deoxytetracycline, reference compound] | 64 | 2 |  |  | 16 |  | 8 |  |  |  |  | 4 | 16 |  |  | 4 | <0.06 | <0.06 |  | >64 | ED50 [21]: 0.6 to 0.93 mg/kg; MIC [22]: 0.25 µg/mL (≈ 0.546 µM); ED50 [23]: 0.37 to 0.42 mg/kg
